Patent US7605272B2, “IGF-1R inhibitor” (Kyowa Hakko Kirin Co., Ltd., priority 2005, dated 2009)
Structures can show the parent of a compound that is named as a salt.

Experiments:
[1] = test system: NCI-H929; experiment: Cytostatic activity on human multiple myeloma cell line NCI-H929 (WST-1); format: cell-based; details: 1 μmol/L, 72 hours; for inhibition at 1 µM: Homo sapiens, NCI-H929, 72 h, read-out: cytostatic rate (%) H929 (1 μmol/L)
How it was run: (§1)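 Cells pre-cultured 24 h at 37 °C, 5% CO2, then exposed 72 h to compound at final 1 or 10 μmol/L (0.1% DMSO). WST-1 added for 2 h, absorbance at 450 nm (ref 690 nm). Cytostatic rate = 100 minus relative growth, with DMSO control as 100% and blank as 0%.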

[2] = target: T1, IGF-1R (Homo sapiens, UniProt P08069); experiment: IGF-1R inhibitory activity (kinase reaction, time-resolved fluoroimmunoassay); format: biochemical; details: IGF-1R active recombinant enzyme, test compound 10 μmol/L
T1 construct: purchased Upstate Co. 14-465
How it was run: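 Compounds were tested at a single 10 μmol/L concentration. Each was incubated with recombinant IGF-1R (200 μg/L), 10 mmol/L ATP, MgCl2/MnCl2 and Na3VO4 (pH 7.5) on immobilized poly(Glu-Tyr) peptide for 30 min at 24° C. Eu-anti-phosphotyrosine time-resolved fluorescence (340/615 nm) gave relative activity against no-compound and no-enzyme wells, reported as % inhibition.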

[3] = test system: KMS-11; experiment: Cytostatic activity on human multiple myeloma cell line KMS-11 (WST-1); format: cell-based; details: 1 μmol/L, 72 hours; for inhibition at 1 µM: Homo sapiens, KMS-11, 72 h, read-out: cytostatic rate (%) KMS-11 (1 μmol/L)
How it was run: as §1

T1 sequence (P08069 959-1367 limits assumed): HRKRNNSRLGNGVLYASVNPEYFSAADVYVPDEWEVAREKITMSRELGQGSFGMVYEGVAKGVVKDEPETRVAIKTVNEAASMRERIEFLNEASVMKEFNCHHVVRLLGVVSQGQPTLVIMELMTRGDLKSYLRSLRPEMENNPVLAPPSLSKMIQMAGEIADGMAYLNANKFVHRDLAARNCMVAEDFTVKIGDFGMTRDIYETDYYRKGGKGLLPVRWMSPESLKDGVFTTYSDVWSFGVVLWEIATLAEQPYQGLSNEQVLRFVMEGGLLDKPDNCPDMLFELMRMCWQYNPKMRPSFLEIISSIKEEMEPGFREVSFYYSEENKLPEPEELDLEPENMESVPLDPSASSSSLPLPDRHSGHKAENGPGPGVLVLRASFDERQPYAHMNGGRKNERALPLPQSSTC

Q: For `Cc1ccsc1C(=O)Nc1cc(C(=O)N2CCN(C(=O)[C@@H]3CCCN3)CC2)ccc1/C=C/c1n[nH]c2ccccc12` [Compound 231, (S)-(E)-N-{2-[2-(1H-indazol-3-yl)vinyl]-5-[4-(pyrrolidin-2-ylcarbonyl)piperazin-1-ylcarbonyl]phenyl}-3-methylthiophene-2-carboxamide], which inhibition at 1 µM [1] is on record?
A: 122%

Q: And the inhibition at 10 µM [2]?
A: 99.7%

Q: What about the inhibition at 1 µM [3] of the same compound?
A: 80.2%

Q: Which results are given for `Cc1ccsc1C(=O)Nc1cc(CN2CCN(S(C)(=O)=O)CC2)ccc1/C=C/c1n[nH]c2ccccc12` [Compound 232, (E)-N-{2-[2-(1H-indazol-3-yl)vinyl]-5-(4-methanesulfonylpiperazin-1-ylmethyl)phenyl}-3-methylthiophene-2-carboxamide]?
A: inhibition at 1 µM [1]: 124%; inhibition at 10 µM [2]: 101%; inhibition at 1 µM [3]: 116%

Q: `Cc1ccsc1C(=O)Nc1cc(CN2CCN(C)CC2)ccc1/C=C/c1n[nH]c2ccccc12` [Compound 234, (E)-N-{2-[2-(1H-indazol-3-yl)vinyl]-5-(4-methylpiperazin-1-ylmethyl)phenyl}-3-methylthiophene-2-carboxamide] was tested. Which inhibition at 1 µM [1] did it give?
A: 118%

Q: And the inhibition at 10 µM [2]?
A: 102%

Q: What about the inhibition at 1 µM [3] of the same compound?
A: 111%

Q: `Cc1ccsc1C(=O)Nc1cc(CN2CCC(S(C)(=O)=O)CC2)ccc1/C=C/c1n[nH]c2ccccc12` [Compound 235, (E)-N-{2-[2-(1H-indazol-3-yl)vinyl]-5-(4-methanesulfonylpiperidin-1-ylmethyl)phenyl}-3-methylthiophene-2-carboxamide] was tested. Which inhibition at 1 µM [1] did it give?
A: 115%

Q: What about the inhibition at 10 µM [2] of the same compound?
A: 98.3%

Q: What about the inhibition at 1 µM [3] of the same compound?
A: 109%

Q: `CCN(CC)CCNCc1ccc(/C=C/c2n[nH]c3ccccc23)c(NC(=O)c2sccc2C)c1` [Compound 236, (E)-N-{5-[(2-diethylaminoethylamino)methyl]-2-[2-(1H-indazol-3-yl)vinyl]phenyl}-3-methylthiophene-2-carboxamide] was tested. Which inhibition at 1 µM [1] did it give?
A: 123%

Q: What about the inhibition at 10 µM [2] of the same compound?
A: 99.5%

Q: And the inhibition at 1 µM [3]?
A: 139%

Q: For `CCN(CC)CCOc1ccc(NC(=O)c2sccc2C)c(/C=C/c2n[nH]c3ccccc23)c1` [Compound 237, (E)-N-{2-[2-(1H-indazol-3-yl)vinyl]-4-(2-diethylaminoethoxy)phenyl}-3-methylthiophene-2-carboxamide], which inhibition at 1 µM [1] is on record?
A: 120%

Q: What about the inhibition at 10 µM [2] of the same compound?
A: 100%

Q: What about the inhibition at 1 µM [3] of the same compound?
A: 144%

Q: What does the source list for `COCCN(CCN1CCOCC1)c1ccc(NC(=O)c2sccc2C)c(/C=C/c2n[nH]c3ccccc23)c1` [Compound 238, (E)-N-{2-[2-(1H-indazol-3-yl)vinyl]-4-[N-(2-methoxyethyl)-2-(morpholin-4-yl)ethylamino]phenyl}-3-methylthiophene-2-carboxamide]?
A: inhibition at 1 µM [1]: 126%; inhibition at 10 µM [2]: 97.1%; inhibition at 1 µM [3]: 132%

Q: For `Cc1ccsc1C(=O)Nc1cc(C(=O)NC2CCNCC2)ccc1/C=C/c1n[nH]c2ccccc12` [Compound 240, (E)-N-{2-[2-(1H-indazol-3-yl)vinyl]-5-(piperidin-4-ylcarbamoyl)phenyl}-3-methylthiophene-2-carboxamide hydrochloride], which inhibition at 1 µM [1] is on record?
A: 105%

Q: What about the inhibition at 10 µM [2] of the same compound?
A: 103%

Q: And the inhibition at 1 µM [3]?
A: 67%

Q: `COCC(=O)N1CCN(Cc2ccc(/C=C/c3n[nH]c4ccccc34)c(NC(=O)c3sccc3C)c2)CC1` [Compound 244, (E)-N-{2-[2-(1H-indazol-3-yl)vinyl]-5-[4-(2-methoxyacetyl)piperazin-1-ylmethyl]phenyl}-3-methylthiophene-2-carboxamide] was tested. Which inhibition at 1 µM [1] did it give?
A: 127%

Q: And the inhibition at 10 µM [2]?
A: 102%

Q: What about the inhibition at 1 µM [3] of the same compound?
A: 124%

Q: For `Cl.Cn1cccc1C(=O)Nc1cc(N2CCOCC2)ccc1/C=C/c1n[nH]c2ccccc12` [Compound 246, (E)-{2-[2-(1H-indazol-3-yl)vinyl]-5-(morpholin-4-yl)phenyl}-1-methyl-1H-pyrrole-2-carboxamide monohydrochloride], which “cytostatic rate (%) H929 (1 μmol/L)” value [1] is on record?
A: 126.7%

Q: What about the “inhibitory activity (%) at 10 μmol/L” value [2] of the same compound?
A: 100.2%

Q: And the “cytostatic rate (%) KMS-11 (1 μmol/L)” value [3]?
A: 128.9%

Q: Which results are given for `Cc1ccsc1C(=O)Nc1cc(CN2CCN(C(=O)CO)CC2)ccc1/C=C/c1n[nH]c2ccccc12` [Compound 248, (E)-N-{2-[2-(1H-indazol-3-yl)vinyl]-5-[4-(2-hydroxyacetyl)piperazin-1-ylmethyl]phenyl}-3-methylthiophene-2-carboxamide]?
A: inhibition at 1 µM [1]: 114%; inhibition at 10 µM [2]: 100%; inhibition at 1 µM [3]: 113%

Q: For `COCCN(CCN1CCOCC1)C(=O)c1ccc(/C=C/c2n[nH]c3ccccc23)c(NC(=O)c2sccc2C)c1` [Compound 249, (E)-N-(2-[2-(1H-indazol-3-yl)vinyl]-5-{N-(2-methoxyethyl)-N-[2-(morpholin-4-yl)ethyl]carbamoyl}phenyl)-3-methylthiophene-2-carboxamide], which inhibition at 1 µM [1] is on record?
A: 113%

Q: What about the inhibition at 10 µM [2] of the same compound?
A: 100%

Q: What about the inhibition at 1 µM [3] of the same compound?
A: 113%

Q: How did the inhibition at 1 µM [1] turn out when `Cc1ccsc1C(=O)Nc1cc(OCCN2CCOCC2)ccc1/C=C/c1n[nH]c2ccccc12` [Compound 251, (E)-N-{2-[2-(1H-indazol-3-yl)vinyl]-5-[2-(morpholin-4-yl)ethoxy]phenyl}-3-methylthiophene-2-carboxamide] was run?
A: 112%

Q: And the inhibition at 10 µM [2]?
A: 102%

Q: And the inhibition at 1 µM [3]?
A: 114%

Q: Which results are given for `COCCN(C)Cc1ccc(/C=C/c2n[nH]c3ccccc23)c(NC(=O)c2sccc2C)c1` [Compound 252, (E)-N-{2-[2-(1H-indazol-3-yl)vinyl]-5-[N-(2-methoxyethyl)methylaminomethyl]phenyl}-3-methylthiophene-2-carboxamide]?
A: inhibition at 1 µM [1]: 120%; inhibition at 10 µM [2]: 101%; inhibition at 1 µM [3]: 113%

Q: What does the source list for `Nc1cccc2c1C(=O)N(c1ccc(F)cc1/C=C/c1n[nH]c3ccccc13)C2=O` [Compound 254, (E)-4-amino-2-{4-fluoro-2-[2-(1H-indazol-3-yl)vinyl]phenyl}isoindole-1,3-dione]?
A: inhibition at 1 µM [1]: 116%; inhibition at 10 µM [2]: 99.5%; inhibition at 1 µM [3]: 81.2%

Q: What does the source list for `CCN(CC)CCN(CCO)C(=O)c1ccc(/C=C/c2n[nH]c3ccccc23)c(NC(=O)c2sccc2C)c1` [Compound 255, (E)-N-(5-{N-[2-(diethylamino)ethyl]-N-(2-hydroxyethyl)carbamoyl}-2-[2-(1H-indazol-3-yl)vinyl]phenyl)-3-methylthiophene-2-carboxamide]?
A: inhibition at 1 µM [1]: 121%; inhibition at 10 µM [2]: 100%; inhibition at 1 µM [3]: 97.6%

Q: For `COCCCN(CCO)C(=O)c1ccc(/C=C/c2n[nH]c3ccccc23)c(NC(=O)c2sccc2C)c1` [Compound 256, (E)-N-{5-[N-(2-hydroxyethyl)-N-(3-methoxypropyl)carbamoyl]-2-[2-(1H-indazol-3-yl)vinyl]phenyl}-3-methylthiophene-2-carboxamide], which inhibition at 1 µM [1] is on record?
A: 122%

Q: And the inhibition at 10 µM [2]?
A: 100%

Q: What about the inhibition at 1 µM [3] of the same compound?
A: 105%

Q: For `Cc1ccsc1C(=O)Nc1cc(C(=O)N(CCO)CCN2CCOCC2)ccc1/C=C/c1n[nH]c2ccccc12` [Compound 259, (E)-N-{5-[N-(2-hydroxyethyl)-N-(2-morpholinoethyl)carbamoyl]-2-[2-(1H-indazol-3-yl)vinyl]phenyl}-3-methylthiophene-2-carboxamide], which inhibition at 1 µM [1] is on record?
A: 118%

Q: And the inhibition at 10 µM [2]?
A: 102%

Q: What about the inhibition at 1 µM [3] of the same compound?
A: 104%

Q: `COCCN(C)C(=O)c1ccc(/C=C/c2n[nH]c3ccccc23)c(NC(=O)c2sccc2C)c1` [Compound 260, (E)-N-{2-[2-(1H-indazol-3-yl)vinyl]-5-[N-(2-methoxyethyl)-N-methylcarbamoyl]phenyl}-3-methylthiophene-2-carboxamide] was tested. Which inhibition at 1 µM [1] did it give?
A: 119%

Q: What about the inhibition at 10 µM [2] of the same compound?
A: 102%

Q: And the inhibition at 1 µM [3]?
A: 118%

Q: Which results are given for `COc1ccc(/C=C/c2n[nH]c3ccccc23)c(NC(=O)c2sccc2C)c1OC` [Compound 261, (E)-N-{6-[2-(1H-indazol-3-yl)vinyl]-2,3-dimethoxyphenyl}-3-methylthiophene-2-carboxamide]?
A: inhibition at 1 µM [1]: 115%; inhibition at 10 µM [2]: 101%; inhibition at 1 µM [3]: 121%

Q: For `Cc1ccsc1C(=O)Nc1cc(N2CCN(C)CC2)ccc1/C=C/c1n[nH]c2ccccc12` [Compound 262, (E)-N-{2-[2-(1H-indazol-3-yl)vinyl]-5-(4-methylpiperazin-1-yl)phenyl}-3-methylthiophene-2-carboxamide], which inhibition at 1 µM [1] is on record?
A: 119%

Q: What about the inhibition at 10 µM [2] of the same compound?
A: 103%

Q: What about the inhibition at 1 µM [3] of the same compound?
A: 119%

Q: With `Cc1ccsc1C(=O)Nc1cc(CNC2CCNCC2)ccc1/C=C/c1n[nH]c2ccccc12` [Compound 264, (E)-N-{2-[2-(1H-indazol-3-yl)vinyl]-5-(piperidin-4-ylaminomethyl)phenyl}-3-methylthiophene-2-carboxamide] as the compound, how does the inhibition at 1 µM [1] read?
A: 111%

Q: What about the inhibition at 10 µM [2] of the same compound?
A: 102%

Q: What about the inhibition at 1 µM [3] of the same compound?
A: 58.5%

Q: How did the inhibition at 1 µM [1] turn out when `Cc1ccsc1C(=O)Nc1cc(F)ccc1/C=C/c1n[nH]c2ccccc12` [Compound 265, (E)-N-{5-fluoro-2-[2-(1H-indazol-3-yl)vinyl]phenyl}-3-methylthiophene-2-carboxamide] was run?
A: 115%

Q: What about the inhibition at 10 µM [2] of the same compound?
A: 98.4%

Q: What about the inhibition at 1 µM [3] of the same compound?
A: 96.9%

Q: Which results are given for `COc1c(OCCN2CCOCC2)ccc(/C=C/c2n[nH]c3ccccc23)c1NC(=O)c1sccc1C` [Compound 266, (E)-N-{6-[2-(1H-indazol-3-yl)vinyl]-2-methoxy-3-(2-morpholinoethoxy)phenyl}-3-methylthiophene-2-carboxamide]?
A: inhibition at 1 µM [1]: 118%; inhibition at 10 µM [2]: 103%; inhibition at 1 µM [3]: 131%
